Laboratory results taken from patent US11248019B2, “Trityl-mono-GalNAc compounds and their use” (Hoffmann-La Roche Inc., priority 2016, dated 2022).

What was measured:
[1] = system: primary mouse hepatocytes; assay: Oligonucleotide content in primary mouse hepatocyte culture by ELISA (Example 9); type: in vitro ADME, C57BL/6J female mice
Procedure: Primary mouse hepatocytes were isolated from C57BL/6J female mice. The mice were anesthesized and the liver was perfused at a flow rate of 7 ml per min through the vena cava using Hank's balanced salt solution containing 15 mM Hepes and 0.38 mM EGTA for 5 min followed by collagenase solution (Hank's balanced salt solution containing 0.17 mg/ml Collagenase type 2 (Worthington 4176), 0.03% BSA, 3.2 mM CaCl2 and 1.6 g/I NaHCO3) for 12 min. Following perfusion, the liver was removed and the liver capsule was opened, the liver suspension was filtered through 70 μm cell strainer using William E medium. The cell suspension was centrifuged for 3 min at 50×g. Viable hepatocytes were further enriched by gradient centrifugation with 45% Percoll (Sigma cat. No. P4937) for 10 min at 50×g. The pellet was washed and resuspended in 25 ml William E medium (Sigma cat. no. W1878 complemented with 1×Pen/Strep, 2 mM L-glutamine and 10% FBS (ATCC #30-2030)), and seeded at 25.000 cells per well in collagen coated 96 well plates. […] Two different incubation regimens were used, one where the cells were incubated 4 hours with oligonucleotide following a medium exchange and continued incubation to a total of 72 hours. In the second regimen the cells were incubated for 72 hours with the oligonucleotides.
Oligonucleotide content analysis was performed using ELISA (see for example Straarup et al 2010 Nucleic Acid Res Vol 38 pp 7100-7111), results are shown in table 20 and 21 below.

[2] = Oligonucleotide content in liver and kidney by ELISA (Example 6); type: in vivo, C57BL6/J mice; conditions: day 3
Procedure: (§1) Female C57BL6/J mice (5/group appr. 20 g at arrival) were injected intravenous (iv) with a single dose saline, 0.22 mg/kg, 0.45 mg/kg or 0.89 mg/kg, of GalNAc conjugated LNA antisense oligonucleotide (Compound H, I or J of the invention) or the naked reference compound F. Blood samples of 50 μl were collected pre-dosing at day minus 6. The animals were sacrificed at day 3. Total serum was collected as well as liver and kidney.
The oligonucleotide content in the liver and kidney was measured using ELISA (see for example Straarup et al 2010 Nucleic Acid Res Vol 38 pp 7100-7111), results are shown in Table 11A and 11B.

ApoB mRNA [3] = assay: ApoB mRNA knockdown in liver and kidney by qPCR, single sc dose, sacrifice day 10 (Example 4); type: in vivo, C57BL6/J mice; conditions: 0.25 mg/kg single sc dose
Procedure: (§2) Female C57BL6/J mice (5/group appr. 20 g at arrival) were injected subcutaneous (sc) with a single dose saline or 0.25 mg/kg unconjugated LNA-antisense oligonucleotide (compound F) or with 0.25 mg/kg or 0.1 mg/kg of GalNAc conjugated LNA antisense oligonucleotide (Compound C or E of the invention or reference compound G). Blood samples of 50 μl were collected pre-dosing at day minus 6, and post dosing at day 3 and 7. The animals were sacrificed at day 10 and total serum was collected as well as liver and kidney.
(§3) ApoB mRNA knockdown was analyzed by qPCR. In brief, RNA was isolated from homogenized liver and kidney using MagnaPure RNA Isolation and purification system (catalog #03604721001 and #05467535001; Roche) according to the manufacturer's instructions. RT-QPCR was done using Taqman Fast Universal PCR Master Mix 2×(Applied Biosystems Cat #4364103) and Taqman gene expression assay (mApoB, Mn01545150_m1 and mGAPDH #4352339E) following the manufacturers protocol.

ALT in serum (Example 6) = type: in vivo, C57BL6/J mice; conditions: day 3
Procedure: as §1
ALT (Alanine aminotransferase) was measured using ABX Pentra ALT CP reagent (A11A01627 Triolab, Brondby, Denmark. The results are shown in Table 13.

ApoB mRNA [4] = assay: ApoB mRNA knockdown in liver and kidney by qPCR, single iv dose, sacrifice day 3 (Example 6); type: in vivo, C57BL6/J mice
Procedure: as §3, §1

ApoB mRNA [5] = assay: ApoB mRNA knock down in primary mouse hepatocytes, qPCR (Example 9); type: cell-based, C57BL/6J female mice; conditions: n = 2
Procedure: Primary mouse hepatocytes were isolated from C57BL/6J female mice. The mice were anesthesized and the liver was perfused at a flow rate of 7 ml per min through the vena cava using Hank's balanced salt solution containing 15 mM Hepes and 0.38 mM EGTA for 5 min followed by collagenase solution (Hank's balanced salt solution containing 0.17 mg/ml Collagenase type 2 (Worthington 4176), 0.03% BSA, 3.2 mM CaCl2 and 1.6 g/I NaHCO3) for 12 min. Following perfusion, the liver was removed and the liver capsule was opened, the liver suspension was filtered through 70 μm cell strainer using William E medium. The cell suspension was centrifuged for 3 min at 50×g. Viable hepatocytes were further enriched by gradient centrifugation with 45% Percoll (Sigma cat. No. P4937) for 10 min at 50×g. The pellet was washed and resuspended in 25 ml William E medium (Sigma cat. no. W1878 complemented with 1×Pen/Strep, 2 mM L-glutamine and 10% FBS (ATCC #30-2030)), and seeded at 25.000 cells per well in collagen coated 96 well plates. After 3 hours the medium was exchanged and the oligonucleotides were added using 3 fold dilutions from […]. Two different incubation regimens were used, one where the cells were incubated 4 hours with oligonucleotide following a medium exchange and continued incubation to a total of 72 hours. […]

[6] = system: total cholesterol in serum; assay: Total cholesterol in serum (Example 6); type: in vivo, C57BL6/J mice; conditions: day 3
Procedure: as §1
Total cholesterol in serum was measured using ABX Pentra Cholesterol CP (Triolab, Brondby, Denmark) according to the manufacturer's instructions.

[7] = Oligonucleotide content in liver and kidney by ELISA (Example 4); type: in vivo, C57BL6/J mice; conditions: 0.25 mg/kg single sc dose, day 10
Procedure: as §2
The oligonucleotide content in the liver and kidney was measured using ELISA (see for example Straarup et al 2010 Nucleic Acid Res Vol 38 pp 7100-7111), results are shown in Table 6.

5′-GS^mCSaStStSgSgStSaStSTS^mCSA-3′ [Compound F, reference compound]
oligonucleotide content in the cell culture ([1]; 4 h pulse, 72 hours total incubation, 1 μM): 0.1 pmol/μg protein | oligonucleotide content in the cell culture ([1]; 4 h pulse, 72 hours total incubation, 3 μM): 0.4 pmol/μg protein | oligonucleotide content in the cell culture ([1]; 4 h pulse, 72 hours total incubation, 9 μM): 1.0 pmol/μg protein | oligonucleotide content in the cell culture ([1]; 4 h pulse, 72 hours total incubation, 27 μM): 1.4+/−0.2 pmol/μg protein | oligonucleotide content in the cell culture ([1]; 72 h oligonucleotide treatment, 0.11 μM): 0.5 pmol/μg protein | oligonucleotide content in the cell culture ([1]; 72 h oligonucleotide treatment, 0.33 μM): 1.5 pmol/μg protein | oligonucleotide content in the cell culture ([1]; 72 h oligonucleotide treatment, 1 μM): 7.9 pmol/μg protein | oligonucleotide content in the cell culture ([1]; 72 h oligonucleotide treatment, 3 μM): 14.5 pmol/μg protein | oligonucleotide content in the cell culture ([1]; 72 h oligonucleotide treatment, 9 μM): 34.1 pmol/μg protein | oligonucleotide content in the cell culture ([1]; 72 h oligonucleotide treatment, 27 μM): 34.2+/−0.7 pmol/μg protein | Oligonucleotide content in kidney tissue ([2]; 0.22 mg/kg single iv dose): 0.337 µg/g | Oligonucleotide content in liver tissue ([2]; 0.22 mg/kg single iv dose): 0.059 µg/g | Oligonucleotide content in kidney tissue ([2]; 0.45 mg/kg single iv dose): 0.506 µg/g | Oligonucleotide content in liver tissue ([2]; 0.45 mg/kg single iv dose): 0.173 µg/g | Oligonucleotide content in kidney tissue ([2]; 0.89 mg/kg single iv dose): 1.050 µg/g | Oligonucleotide content in liver tissue ([2]; 0.89 mg/kg single iv dose): 0.470 µg/g | ApoB mRNA expression as % of saline, mRNA kidney (ApoB mRNA [3]; day 10, kidney): 24.7 % of saline | ApoB mRNA expression as % of saline, mRNA liver (ApoB mRNA [3]; day 10, liver): 74.5 % of saline | ALT levels (U/L) in serum at day 3 as % of saline (ALT in serum (Example 6); 0.22 mg/kg single iv dose): 91 % of saline | ALT levels (U/L) in serum at day 3 as % of saline (ALT in serum (Example 6); 0.45 mg/kg single iv dose): 151 % of saline | ALT levels (U/L) in serum at day 3 as % of saline (ALT in serum (Example 6); 0.89 mg/kg single iv dose): 217 % of saline | ApoB mRNA expression as % of saline in kidney (ApoB mRNA [4]; 0.22 mg/kg single iv dose): 68.0 % of saline | ApoB mRNA/mGAPDH expression as % of saline in liver (ApoB mRNA [4]; 0.22 mg/kg single iv dose): 87.5 % of saline | ApoB mRNA expression as % of saline in kidney (ApoB mRNA [4]; 0.45 mg/kg single iv dose): 51.1 % of saline | ApoB mRNA/mGAPDH expression as % of saline in liver (ApoB mRNA [4]; 0.45 mg/kg single iv dose): 90.2 % of saline | ApoB mRNA expression as % of saline in kidney (ApoB mRNA [4]; 0.89 mg/kg single iv dose): 29.0 % of saline | ApoB mRNA/mGAPDH expression as % of saline in liver (ApoB mRNA [4]; 0.89 mg/kg single iv dose): 53.8 % of saline | IC50 (ApoB mRNA [5]; 4 h pulse/72 h total incubation): 2620 nM | IC50 (ApoB mRNA [5]; 72 h oligonucleotide treatment): 331 nM | serum cholesterol percent of saline ([6]; 0.22 mg/kg single iv dose): 104.3% of saline | serum cholesterol percent of saline ([6]; 0.45 mg/kg single iv dose): 86.8% of saline | serum cholesterol percent of saline ([6]; 0.89 mg/kg single iv dose): 66.9% of saline | Oligonucleotide content, Kidney [7]: 1.370 μg/g tissue | Oligonucleotide content, Liver [7]: 0.028 μg/g tissue
